#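 Five compound concentrations were applied to cells in 96-well plates for 48 hours; endpoints were derived by simple linear interpolation of the resulting dose-response curve. GI50 marks 50% less growth.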 Activity calls are given as the source filed them. Rule as the data show it: active = GI50 up to about 1.1 µM and inactive = higher.
# Assays:
# Experiment in all cases: NCI anticancer screen, dose series, 48 h
# OVCAR-3 = tested on: OVCAR-3
# LOX IMVI = tested on: LOX IMVI
# SF-268 = tested on: SF-268
# HCT-15 = tested on: HCT-15
# HT-29 = tested on: HT-29
# OVCAR-8 = tested on: OVCAR-8
# HL-60 = tested on: HL-60
# HOP-92 = tested on: HOP-92
# NCI-H226 = tested on: NCI-H226
# NCI/ADR-RES = tested on: NCI/ADR-RES
# NCI-H522 = tested on: NCI-H522
# RPMI-8226 = tested on: RPMI-8226
# UACC-257 = tested on: UACC-257
# HOP-62 = tested on: HOP-62
# 786-0 = tested on: 786-0
# SK-MEL-2 = tested on: SK-MEL-2
# MCF7 = tested on: MCF7
# MDA-N = tested on: MDA-N
# RXF 393 = tested on: RXF 393
# SNB-75 = tested on: SNB-75
SMILES,GI50 (OVCAR-3),GI50 (LOX IMVI),GI50 (SF-268),GI50 (HCT-15),GI50 (HT-29),GI50 (OVCAR-8),GI50 (HL-60),GI50 (HOP-92),GI50 (NCI-H226),GI50 (NCI/ADR-RES),GI50 (NCI-H522),GI50 (RPMI-8226),GI50 (UACC-257),GI50 (HOP-62),GI50 (786-0),GI50 (SK-MEL-2),GI50 (MCF7),GI50 (MDA-N),GI50 (RXF 393),GI50 (SNB-75)
COc1cccc2c1C(=O)c1c(O)c3c(c(O)c1C2=O)C[C@@](O)(C(C)=O)C[C@@H]3OC1CC(N(Cc2ccccc2)Cc2ccccc2)C(O)C(C)O1 (stereo not given in full),22.8 µM (inactive),5 µM (inactive),14.2 µM (inactive),4.95 µM,0.474 µM (active),4.89 µM (inactive),9.55 µM (inactive),17.8 µM (inactive),13.1 µM (inactive),10.3 µM (inactive),10.4 µM (inactive),4.62 µM (inactive),26.4 µM (inactive),18.8 µM (inactive),0.713 µM (active),16.8 µM (inactive),12.4 µM (inactive),11.4 µM (inactive),30.6 µM (inactive),30.1 µM (inactive)
O=C(NCCCl)N(O)C(=O)Nc1ccccc1,> 100 µM (inactive),> 100 µM (inactive),> 100 µM (inactive),> 100 µM,> 100 µM (inactive),> 100 µM (inactive),> 100 µM (inactive),> 100 µM (inactive),> 100 µM (inactive),74.6 µM (inactive),> 100 µM (inactive),> 100 µM (inactive),> 100 µM (inactive),> 100 µM (inactive),> 100 µM (inactive),> 100 µM (inactive),> 100 µM (inactive),> 100 µM (inactive),> 100 µM (inactive),> 100 µM (inactive)
N#CC(C#N)=C(N)/C(C#N)=C/c1ccc2[nH]ccc2c1,> 100 µM (inactive),> 100 µM (inactive),> 100 µM (inactive),> 100 µM,> 100 µM (inactive),> 100 µM (inactive),> 100 µM (inactive),> 100 µM (inactive),> 100 µM (inactive),> 100 µM (inactive),97.3 µM (inactive),> 100 µM (inactive),> 100 µM (inactive),> 84.3 µM (inactive),> 100 µM (inactive),> 100 µM (inactive),> 100 µM (inactive),> 100 µM (inactive),> 91.2 µM (inactive),22.7 µM (inactive)
Clc1ccc(/N=C/C=C/Nc2ccc(Cl)cn2)nc1,13.5 µM (inactive),7.73 µM (inactive),16.4 µM (inactive),1.76 µM,7.8 µM (inactive),10.4 µM (inactive),2.12 µM (inactive),16.3 µM (inactive),16.1 µM (inactive),15.2 µM (inactive),14 µM (inactive),10.4 µM (inactive),17.1 µM (inactive),16.9 µM (inactive),5.65 µM (inactive),15.6 µM (inactive),16.4 µM (inactive),15.1 µM (inactive),18.4 µM (inactive),13 µM (inactive)
O=C1NC2(CCN(CCc3ccccc3)CC2)Oc2ccccc21,77.6 µM (inactive),53.7 µM (inactive),> 100 µM (inactive),46.3 µM,38 µM (inactive),64.7 µM (inactive),40.4 µM (inactive),24.7 µM (inactive),61.1 µM (inactive),38.2 µM (inactive),95.1 µM (inactive),33.7 µM (inactive),37.8 µM (inactive),> 100 µM (inactive),> 100 µM (inactive),> 100 µM (inactive),46.5 µM (inactive),41.6 µM (inactive),22.4 µM (inactive),36.9 µM (inactive)
COc1ccc(C(SC2C(O)C(CO)OC2n2ccc(N)nc2=O)(c2ccccc2)c2ccc(OC)cc2)cc1 (stereo not given),18.7 µM (inactive),17.7 µM (inactive),17.7 µM (inactive),17.8 µM,16.9 µM (inactive),28.1 µM (inactive),26.9 µM (inactive),17.5 µM (inactive),14.2 µM (inactive),21 µM (inactive),13.4 µM (inactive),17.5 µM (inactive),18.6 µM (inactive),17.8 µM (inactive),16.8 µM (inactive),16.8 µM (inactive),17.3 µM (inactive),10.1 µM (inactive),17.5 µM (inactive),16.5 µM (inactive)
Cc1cc(Br)cc(C)c1NC(=O)C(=O)Nn1c(S)nc2ccccc2c1=O,> 100 µM (inactive),> 100 µM (inactive),> 100 µM (inactive),> 100 µM,> 100 µM (inactive),> 100 µM (inactive),> 100 µM (inactive),> 100 µM (inactive),> 100 µM (inactive),> 100 µM (inactive),> 100 µM (inactive),> 100 µM (inactive),> 100 µM (inactive),> 100 µM (inactive),> 100 µM (inactive),> 100 µM (inactive),> 100 µM (inactive),> 100 µM (inactive),> 100 µM (inactive),> 100 µM (inactive)
COc1cc(C(=O)N(C)N(C)C)cc(OC)c1OC,> 10 µM (inactive),> 10 µM (inactive),> 10 µM (inactive),> 10 µM,> 10 µM (inactive),> 10 µM (inactive),> 10 µM (inactive),> 10 µM (inactive),> 10 µM (inactive),> 10 µM (inactive),> 10 µM (inactive),> 10 µM (inactive),> 10 µM (inactive),> 10 µM (inactive),> 10 µM (inactive),> 10 µM (inactive),> 10 µM (inactive),> 10 µM (inactive),> 10 µM (inactive),> 10 µM (inactive)
Cn1c(=O)c2[nH]c(CCC(=O)O)nc2n(C)c1=O,> 100 µM (inactive),> 100 µM (inactive),> 100 µM (inactive),> 100 µM,> 100 µM (inactive),> 100 µM (inactive),> 100 µM (inactive),> 100 µM (inactive),> 100 µM (inactive),> 100 µM (inactive),> 100 µM (inactive),> 100 µM (inactive),> 100 µM (inactive),> 100 µM (inactive),> 100 µM (inactive),> 100 µM (inactive),> 100 µM (inactive),> 100 µM (inactive),> 100 µM (inactive),> 100 µM (inactive)
COC(=O)c1ccc(C)cc1C1CN=NC12Cc1cc(C)ccc1C2=O (stereo not given),9.14 µM (inactive),10.4 µM (inactive),25.6 µM (inactive),5.24 µM,3.32 µM (inactive),27.2 µM (inactive),3.58 µM (inactive),21.7 µM (inactive),21.2 µM (inactive),6.64 µM (inactive),5.06 µM (inactive),16.4 µM (inactive),17.7 µM (inactive),20.1 µM (inactive),21.3 µM (inactive),8.22 µM (inactive),3.61 µM (inactive),2.37 µM (inactive),13.8 µM (inactive),8.61 µM (inactive)
c1cncc(-c2cc(-c3cc(-c4cccnc4)[nH]n3)n[nH]2)c1,> 100 µM (inactive),> 100 µM (inactive),> 100 µM (inactive),> 100 µM,> 100 µM (inactive),> 100 µM (inactive),> 100 µM (inactive),> 100 µM (inactive),> 100 µM (inactive),> 100 µM (inactive),> 100 µM (inactive),> 100 µM (inactive),> 100 µM (inactive),> 100 µM (inactive),> 100 µM (inactive),> 100 µM (inactive),> 100 µM (inactive),> 100 µM (inactive),> 100 µM (inactive),> 100 µM (inactive)
CC(C)C(NC(=O)C(Cc1ccccc1)NC(=O)[C@H]1CCC[C@H]1NC(=O)C(N)Cc1ccc(O)cc1)C(N)=O (stereo not given in full),> 100 µM (inactive),> 100 µM (inactive),> 100 µM (inactive),> 100 µM,> 100 µM (inactive),> 100 µM (inactive),> 100 µM (inactive),> 100 µM (inactive),> 100 µM (inactive),> 100 µM (inactive),> 100 µM (inactive),> 100 µM (inactive),> 100 µM (inactive),> 100 µM (inactive),> 100 µM (inactive),> 100 µM (inactive),> 100 µM (inactive),> 100 µM (inactive),> 100 µM (inactive),> 100 µM (inactive)
CCN(CC)CCn1nc(N)c2nc3ccccc3nc21,> 100 µM (inactive),> 100 µM (inactive),> 100 µM (inactive),> 100 µM,> 100 µM (inactive),> 100 µM (inactive),> 100 µM (inactive),> 100 µM (inactive),> 100 µM (inactive),> 100 µM (inactive),96.4 µM (inactive),> 100 µM (inactive),> 100 µM (inactive),> 100 µM (inactive),> 100 µM (inactive),> 100 µM (inactive),> 100 µM (inactive),> 100 µM (inactive),> 100 µM (inactive),39.9 µM (inactive)
C/C(=N/NC(=S)N(Cc1ccccn1)Cc1ccccn1)c1cnccn1,0.646 µM (active),0.133 µM (active),0.418 µM (active),0.458 µM,0.0303 µM (active),0.0303 µM (active),0.126 µM (active),1.23 µM (inactive),< 0.0178 µM (active),0.0242 µM (active),0.0381 µM (active),0.373 µM (active),0.47 µM (active),0.594 µM (active),0.393 µM (active),3.41 µM (inactive),0.565 µM (active),2.67 µM (inactive),2.52 µM (inactive),3.43 µM (inactive)
